Legend:
Assay type in all cases: cell-based
Tel-Jak2 = target: T1, Tel-Jak2 (Homo sapiens, UniProt O60674); test: Cellular growth inhibition assay (MTT), Tel-Jak2 transformed BaF3 cell line; conditions: 40 hr incubation, read-out: Jak2: growth inhibitory activity (>50%) in transformed cell line Tel-Jak2
T1 construct: The regions encompassing the kinase domains of JAK2 (nucleotides 2994–3914); TEL (ETV6, human P41212) N-terminal part encoded by nucleotides 1-487 of TEL; expressed in transfected cells; host or cells: BaF3 (murine) bearing pTET-off, transfected with pTELJAK2 (pTRE2 vector); the other entry of the earlier key: ETV6 (P41212, Transcription factor ETV6)
T1 sequence (O60674 with tags, fused parts or gaps): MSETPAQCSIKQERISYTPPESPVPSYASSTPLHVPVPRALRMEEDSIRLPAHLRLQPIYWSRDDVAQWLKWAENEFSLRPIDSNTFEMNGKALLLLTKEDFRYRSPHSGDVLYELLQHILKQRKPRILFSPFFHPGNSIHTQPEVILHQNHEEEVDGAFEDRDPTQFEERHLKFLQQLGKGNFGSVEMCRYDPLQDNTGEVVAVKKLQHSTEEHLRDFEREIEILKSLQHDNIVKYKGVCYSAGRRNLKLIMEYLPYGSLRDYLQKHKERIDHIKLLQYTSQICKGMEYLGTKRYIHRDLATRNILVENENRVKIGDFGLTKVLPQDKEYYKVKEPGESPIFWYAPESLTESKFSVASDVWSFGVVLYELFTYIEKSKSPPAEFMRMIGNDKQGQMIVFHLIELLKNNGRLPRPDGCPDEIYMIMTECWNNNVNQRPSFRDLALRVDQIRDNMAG
Excerpt: (§1) The coding region encompassing nucleotides 1–487 of TELwas amplified by PCR using the oligonucleotides 5TEL (5′-GGAGGATCCTGATCTCTCTCGCTGTGAGAC-3′) and 3TEL (5′-AGGC GTCGACTTCTTCTTCATGGTTCTG-3′) and U937 mRNA as template. A BamHI site was present into the 5TEL Primer, a SalI site was incorporated into the 3TEL primer. The regions encompassing the kinase domains of JAK2 (nucleotides 2994–3914; JAK2F 5′-ACGC GTCGACGGTGCCTTTGAAGACCGGGAT-3′; JAK2R 5′-ATAGTTTAGCGGCCGCTCAGAATGAAGGTCATTT-3′) and JAK3 (nucleotides 2520–3469; JAK3F 5′-GAAGTCGACTATGCCTGCCAAGACCCCACGATCTT-3′; JAK3R 5′-GGATCTAGACTATGAAAAGGACAGGGAGTGGTGTTT-3′) were generated by PCR using Taq DNA Polymerase (Gibco/BRL) and U937 mRNA as template. A SalI site was incorporated into the forward primer of JAK2 and JAK3, a NotI site was incorporated into the JAK2 reverse primer and a Xba I site was added to the reverse primer of JAK3.
(§2) A TEL/Jak2 fusion was generated by digestion of the TELPCR product with BamHI/SalI, digestion of the JAK2 PCR product with SalI/NotI followed by ligation and subcloning into the mammalian expression Vector pTRE 2 (Clontech) digested with BamHI-NotI (pTELJAK2). For JAK3 SalI/NotI cleaved kinase domain PCR product was ligated with BamHI/SalI cleaved TELproduct followed by ligation into BamHI/NotI cleaved pTRE2 (pTELJAK3).
(§3) The growth factor dependent myelomonocytic cell line BaF3 bearing the pTET-off plasmid (Clontech) was transfected with either pTELJAK2 or pTELJAK3 and the cells selected for factor independent growth. BaF 3 wild type cells were cultured in DMEM 10% FCS, 10% WEHI 3B conditioned medium. BaF3 TELJAK cells were cultured in DMEM 10% Tet-System Approved FBS (without WEHI 3B conditioned medium).
(§4) Cell suspensions were prepared by harvesting cells from culture. (Cells used in this test should be in later log phase growth and high viability.) Cells were diluted in correct growth medium to 1.1×final concentration (from 50000 cell/mL to 200,000 cell/mL, depending on cell line).
(§5) Compounds to be tested were added (10 μL, 10×final concentration) to a flat bottom 96-well plate. The cellular suspension (90 μL per well) was added, and the plate incubated for 40 hr at 37° C., 5% CO2. MTT (20 μL per well, 5 mg/mL in PBS) was added and the plates were returned to the incubator for a further 6 hours. Lysis buffer (100 μL per well, 10% SDS, 0.01N HCl) was added and the plate stored in the incubator overnight. The plate was then read at 590 nm.

Tel-Jak3 = target: T2, Tel-Jak3 (Homo sapiens, UniProt P52333); test: Cellular growth inhibition assay (MTT), Tel-Jak3 transformed BaF3 cell line; conditions: 40 hr incubation, read-out: Jak3: growth inhibitory activity (>50%) in transformed cell line Tel-Jak3
T2 construct: TEL (ETV6, human P41212) N-terminal part encoded by nucleotides 1-487 of TEL; expressed in transfected cells; host or cells: BaF3 (murine) bearing pTET-off, transfected with pTELJAK3 (pTRE2 vector); the other entry of the earlier key: ETV6 (P41212, Transcription factor ETV6)
T2 sequence (P52333 with tags, fused parts or gaps): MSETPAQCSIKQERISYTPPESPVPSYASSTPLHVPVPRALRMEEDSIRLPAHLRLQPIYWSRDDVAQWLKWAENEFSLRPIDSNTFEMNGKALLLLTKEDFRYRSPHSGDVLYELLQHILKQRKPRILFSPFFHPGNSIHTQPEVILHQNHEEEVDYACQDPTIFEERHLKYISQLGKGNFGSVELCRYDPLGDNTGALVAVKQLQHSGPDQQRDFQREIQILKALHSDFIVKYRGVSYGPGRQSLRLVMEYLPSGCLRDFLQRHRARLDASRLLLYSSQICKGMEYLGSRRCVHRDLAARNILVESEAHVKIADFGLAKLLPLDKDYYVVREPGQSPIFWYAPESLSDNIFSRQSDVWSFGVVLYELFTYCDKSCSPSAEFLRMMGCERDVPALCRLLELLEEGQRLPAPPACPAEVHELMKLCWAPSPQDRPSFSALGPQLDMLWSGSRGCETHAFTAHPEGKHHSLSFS
Excerpt: as §1, §2, §3, §4, §5

DU145 = test: Cellular growth inhibition assay (MTT), DU145 cells; conditions: Homo sapiens, DU-145, 40 hr incubation, read-out: DU145: growth inhibitory activity
Method: as §4, §5

Structure (SMILES) | inhibition at 50 µM (Tel-Jak2) | inhibition at 50 µM (Tel-Jak3) | inhibition at 50 µM (DU145)
C[C@H](Nc1cncc(-c2ccc(NC(=O)C3CC3)cc2)n1)c1ccccc1 [Chemistry 193] | > 50% | > 50% | > 50%
COc1cc(-c2cncc(NC(C)c3ccc(NC(=O)CN4CCN(C)CC4)cc3)n2)ccc1O (stereo not shown) [Chemistry 282] | > 50% | > 50% | > 50%
COc1cc(-c2cncc(NC(C)c3ccc(C(=O)O)cc3)n2)ccc1O (stereo not shown) [Chemistry 324] | < 50% | < 50% | < 50%
C[C@H](Nc1cncc(-c2ccc(N)cc2)n1)c1ccccc1 [Chemistry 181] | > 50% | > 50% | < 50%
COc1cc(-c2cncc(NC(C)c3ccc(C(=O)NCCN(C)C)cc3)n2)ccc1O (stereo not shown) [Chemistry 352] | > 50% | > 50% | < 50%
COc1cc(-c2cncc(NC(C)c3ccc(NCCN4CCN(C)CC4)cc3)n2)ccc1O (stereo not shown) [Chemistry 318] | > 50% | > 50% | < 50%
COc1cc(-c2cncc(NCc3ccco3)n2)ccc1O [Chemistry 141] | > 50% | > 50% | > 50%
COc1cc(-c2cncc(NC(C)c3cccc(NC(=O)c4cccnc4)c3)n2)ccc1O (stereo not shown) [Chemistry 268] | > 50% | > 50% | > 50%
COc1cc(-c2cncc(NCc3cccnc3)n2)ccc1O [Chemistry 136] | > 50% | > 50% | > 50%
COc1cc(-c2cncc(N[C@@H](C)c3ccccc3)n2)ccc1O [Chemistry 118] | > 50% | > 50% | > 50%
COc1cc(-c2cncc(NC(C)c3ccncc3)n2)ccc1O (stereo not shown) [Chemistry 200] | > 50% | > 50% | < 50%
COc1cc(-c2cncc(NC(C)c3ccc(N)cc3)n2)ccc1O (stereo not shown) [Chemistry 319] | > 50% | > 50% | < 50%
COc1cc(-c2cncc(NC(C)c3cccc(NC(=O)N4CCN(C)CC4)c3)n2)ccc1O (stereo not shown) [Chemistry 241] | > 50% | > 50% | < 50%
COc1cc(-c2cncc(NC(C)c3ccc(C(N)=O)cc3)n2)ccc1O (stereo not shown) [Chemistry 304] | > 50% | > 50% | < 50%
COc1cc(-c2cncc(NC(C)c3cccc(NC(=O)c4ccncc4)c3)n2)ccc1O (stereo not shown) [Chemistry 269] | > 50% | > 50% | > 50%
COc1cc(-c2cncc(NC(C)c3cccc(NC(=O)C4CCCN4)c3)n2)ccc1O (stereo not shown) [Chemistry 267] | > 50% | > 50% | > 50%
COc1cc(-c2cncc(N[C@H]3CCc4ccccc43)n2)ccc1O [Chemistry 68] | > 50% | > 50% | –
COc1cc(-c2cncc(NC(C)c3ccc(NC(=O)N4CCN(C)CC4)cc3)n2)ccc1O (stereo not shown) [Chemistry 283] | > 50% | > 50% | > 50%
COc1cc(-c2cncc(N(C)[C@@H](C)c3ccccc3)n2)ccc1O [Chemistry 142] | > 50% | > 50% | < 50%
COc1cc(-c2cncc(N[C@H]3CCCc4ccccc43)n2)ccc1O [Chemistry 87] | > 50% | < 50% | –

Source: US7122550B2, “Protein kinase inhibitors” (Cytopia Pty Ltd, priority 2002, dated 2006)
